Assay results published in patent publication US12637500B2, “Tumor antigen peptide” (Niigata University, priority 2015, dated 2026).

Legend:
[1] = system: HLA-A24; assay: HLA-A24 binding assay (MFI shift on T2-A24 cells); parameters: species or system human; settings: for binding to HLA-A24: T2-A24 cells, MFI shift
Protocol: T2-A24 cells, which are HLA-A24-expressing T2 cells, were preincubated in a CO2 incubator at 27° C. overnight. The cells collected were resuspended in Opti-MEM and plated on a round bottom 96 well plate (Corning) with about 1×10^5 cells/200 μL per well. A subject peptide was added at concentrations of 0.33 μM, […], and 10 μM, and incubation was carried out in a CO2 incubator at 27° C. for 3 hours and subsequently at 37° C. for 2.5 hours. Subsequently, the cells were subjected to centrifugation (380 g, 5 minutes) as they were on the plate, resuspended in 100 μL of a C7709A2 monoclonal antibody-producing hybridoma culture supernatant, and incubated on ice for 45 to 60 minutes. The cells were washed with ice-cooled PBS and then incubated together with an FITC-conjugated goat anti-mouse IgG antibody (KPL, Gaithersburg, MD) on ice for 30 minutes. The cells were washed with ice-cooled PBS as they were on the plate, then resuspended in 1% formaldehyde and PBS, and analyzed by a FACScan (BD Biosciences, Mountain View, CA), and the mean fluorescence intensity (MFI) shift (fluorescence increase as a result of stabilization by binding peptide) due to an increase in the amount of stable HLA-A24 molecules was thus measured. A cell treated with nonbinding peptide GK12 (concentration 0 to 10 μM) has a constant MFI and it was used as a negative control.
The MFI shift (AMFI) for a peptide concentration of 1 μM was measured for 26 types of randomly selected peptides of the natural peptides obtained in Example 1 above. A score was also calculated for these peptides using NetMHC3.4, and correlation with ΔMFI was investigated.

[2] = system: human PBMC; assay: CTL induction from PBMC by peptide stimulation; type: cell-based; settings: peptide 10 μg/mL, PBMC of HLA-A24-positive healthy controls, method of Example 5 (1)
Protocol: Peripheral blood was collected using a heparin-containing 50 ML syringe from HLA-A24-positive healthy controls who had given informed consent. The whole blood was layered in a 50 mL tube (Falcon) to which 13 mL of Lymphoprep (Nycomed) had been added, and subjected to centrifugation at 2000 rpm for 30 minutes. A PBMC layer precipitated on the Lymphoprep layer was recovered using a pipette and washed three times with PBS, thus giving human PBMC.
About 3×10^7 cells/plate of the human PBMC separated above and 10 mL of Hepes-modified RPMI1640 medium (Sigma) containing 2-mercaptoethanol (final concentration 55 μM), L-glutamine (final concentration 2 mM), as antibiotics streptomycin (final concentration 100 μg/mL) and penicillin G (final concentration 100 U/mL), and 5% serum component were placed in each well of a […] for cell culture (BECTON DIKINSON), and suspension cultured. PVT1-derived natural antigen peptide of SEQ ID No: 1 (hereinafter referred to as ‘HF10’) or SUV39H2-derived natural antigen peptide of SEQ ID No: 2 (hereinafter referred to as ‘RF8’) were added thereto at a concentration of 10 μg/mL. After culturing was carried out for 2 days, IL-2 was added at a final concentration of 50 U/mL, and culturing was carried out for a further 2 weeks. […]

Row | Substance | MFI of T2-A24 cells treated with peptide ([1]; concentration 0 to 10 μM, negative control peptide) | binding to HLA-A24 [1] | CTL induction [2]
1 | GK12: synthetic nonbinding peptide used as negative control for HLA-A24 binding (GYISPYFINTSK) [reference compound] | constant MFI | – | –
2 | HWNDTRPAHF [SEQ ID No: 1, PVT1-derived natural antigen peptide] | – | high binding | A plurality of CTL clones were induced
3 | IFQGNVHNF [SEQ ID No: 4, SNRNP40-derived natural peptide] | – | high binding | –
4 | KYVKDFHKF [SEQ ID No: 3, ZNF724P-derived natural peptide] | – | high binding | –
5 | RYGNVSHF [SEQ ID No: 2, SUV39H2-derived natural antigen peptide] | – | high binding | A plurality of CTL clones were induced
6 | VYTYIQSRF [SEQ ID No: 5, DYRK4-derived natural peptide] | – | high binding | –
